Measurements: ChEMBL document CHEMBL3580597 (J Med Chem, 2015)

Legend:
[1] = biological target: T1, Bromodomain-containing protein 4 (Homo sapiens, UniProt O60885); assay: Displacement of FAM-labeled ZBA248 from BRD4 BD1 (44 to 168 amino acid residues) (unknown origin) expressed in Rosetta2 DE3 cells after 30 mins by fluorescence polarization assay
[2] = biological target: T1, Bromodomain-containing protein 4; assay: Displacement of FAM-labeled ZBA248 from BRD4 BD2 (333 to 460 amino acid residues) (unknown origin) expressed in Rosetta2 DE3 cells after 30 mins by fluorescence polarization assay
K562 = assay: cells; format: functional, cell-based; settings: Homo sapiens, K562, 96 h
[3] = biological target: T2, Bromodomain-containing protein 2 (Homo sapiens, UniProt P25440); assay: Displacement of FAM-labeled ZBA248 from BRD2 BD2 (349 to 460 amino acid residues) (unknown origin) expressed in Rosetta2 DE3 cells after 30 mins by fluorescence polarization assay
T2 sequence (P25440 whole entry, the tested form may be a part): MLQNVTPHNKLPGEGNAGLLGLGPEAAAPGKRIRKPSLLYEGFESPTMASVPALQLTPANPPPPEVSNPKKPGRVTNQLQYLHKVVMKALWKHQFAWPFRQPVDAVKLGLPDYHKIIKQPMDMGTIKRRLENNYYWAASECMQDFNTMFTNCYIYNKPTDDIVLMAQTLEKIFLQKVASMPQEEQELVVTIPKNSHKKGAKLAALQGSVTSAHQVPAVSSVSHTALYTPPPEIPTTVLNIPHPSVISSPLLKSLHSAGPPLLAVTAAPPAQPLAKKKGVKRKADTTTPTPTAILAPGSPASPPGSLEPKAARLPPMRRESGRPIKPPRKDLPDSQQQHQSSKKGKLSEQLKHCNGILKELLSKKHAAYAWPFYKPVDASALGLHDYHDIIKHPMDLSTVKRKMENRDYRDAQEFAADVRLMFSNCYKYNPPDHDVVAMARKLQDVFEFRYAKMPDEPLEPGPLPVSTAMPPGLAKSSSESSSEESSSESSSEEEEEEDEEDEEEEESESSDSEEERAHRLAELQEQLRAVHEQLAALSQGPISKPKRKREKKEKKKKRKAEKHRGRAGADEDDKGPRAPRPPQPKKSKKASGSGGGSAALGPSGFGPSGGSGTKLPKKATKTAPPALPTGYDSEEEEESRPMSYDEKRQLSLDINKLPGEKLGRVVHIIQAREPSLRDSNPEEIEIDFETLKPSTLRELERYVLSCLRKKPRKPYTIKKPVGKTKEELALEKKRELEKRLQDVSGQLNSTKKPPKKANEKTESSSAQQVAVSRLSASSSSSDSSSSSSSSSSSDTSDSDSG

[4] = biological target: T2, Bromodomain-containing protein 2; assay: Displacement of FAM-labeled ZBA248 from BRD2 BD1 (72 to 205 amino acid residues) (unknown origin) expressed in Rosetta2 DE3 cells after 30 mins by fluorescence polarization assay
[5] = biological target: T3, Bromodomain-containing protein 3 (Homo sapiens, UniProt Q15059); assay: Binding affinity to biotinylated BRD3 BD2 (306 to 417 amino acid residues) (unknown origin) expressed in Rosetta2 DE3 cells by bio-layer interferometry method
T3 sequence (Q15059 whole entry, the tested form may be a part): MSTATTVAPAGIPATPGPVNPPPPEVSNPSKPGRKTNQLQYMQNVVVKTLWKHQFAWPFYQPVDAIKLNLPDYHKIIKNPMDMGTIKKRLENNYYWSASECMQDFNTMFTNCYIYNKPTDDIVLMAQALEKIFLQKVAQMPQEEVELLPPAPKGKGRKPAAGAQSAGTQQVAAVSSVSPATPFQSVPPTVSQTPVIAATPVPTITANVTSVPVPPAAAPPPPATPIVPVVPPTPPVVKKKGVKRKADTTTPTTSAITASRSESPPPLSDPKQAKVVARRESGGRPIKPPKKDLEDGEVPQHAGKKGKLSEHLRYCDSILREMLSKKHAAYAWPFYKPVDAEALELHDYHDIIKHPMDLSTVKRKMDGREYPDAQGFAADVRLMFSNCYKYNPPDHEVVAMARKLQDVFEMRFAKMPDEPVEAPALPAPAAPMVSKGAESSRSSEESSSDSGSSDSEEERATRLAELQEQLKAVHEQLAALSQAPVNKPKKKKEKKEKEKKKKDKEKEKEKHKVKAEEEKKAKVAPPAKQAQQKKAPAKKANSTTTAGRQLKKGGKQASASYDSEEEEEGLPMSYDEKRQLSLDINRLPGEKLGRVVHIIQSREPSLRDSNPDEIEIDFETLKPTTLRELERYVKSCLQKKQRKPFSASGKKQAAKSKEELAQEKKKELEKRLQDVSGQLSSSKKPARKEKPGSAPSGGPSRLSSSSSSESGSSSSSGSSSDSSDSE

MV4-11 = assay: cells; format: functional, cell-based; settings: Homo sapiens, MV4-11, 96 h
[6] = biological target: T3, Bromodomain-containing protein 3; assay: Displacement of FAM-labeled ZBA248 from BRD3 BD2 (306 to 417 amino acid residues) (unknown origin) expressed in Rosetta2 DE3 cells after 30 mins by fluorescence polarization assay
[7] = biological target: T3, Bromodomain-containing protein 3; assay: biochemical; format: cell-based
[8] = biological target: T4, ATPase family AAA domain-containing protein 2 (Homo sapiens, UniProt Q6PL18); assay: Binding affinity to biotinylated ATAD2A (981 to 1108 amino acid residues) (unknown origin) expressed in Rosetta2 DE3 cells by bio-layer interferometry method
T4 sequence (Q6PL18 whole entry): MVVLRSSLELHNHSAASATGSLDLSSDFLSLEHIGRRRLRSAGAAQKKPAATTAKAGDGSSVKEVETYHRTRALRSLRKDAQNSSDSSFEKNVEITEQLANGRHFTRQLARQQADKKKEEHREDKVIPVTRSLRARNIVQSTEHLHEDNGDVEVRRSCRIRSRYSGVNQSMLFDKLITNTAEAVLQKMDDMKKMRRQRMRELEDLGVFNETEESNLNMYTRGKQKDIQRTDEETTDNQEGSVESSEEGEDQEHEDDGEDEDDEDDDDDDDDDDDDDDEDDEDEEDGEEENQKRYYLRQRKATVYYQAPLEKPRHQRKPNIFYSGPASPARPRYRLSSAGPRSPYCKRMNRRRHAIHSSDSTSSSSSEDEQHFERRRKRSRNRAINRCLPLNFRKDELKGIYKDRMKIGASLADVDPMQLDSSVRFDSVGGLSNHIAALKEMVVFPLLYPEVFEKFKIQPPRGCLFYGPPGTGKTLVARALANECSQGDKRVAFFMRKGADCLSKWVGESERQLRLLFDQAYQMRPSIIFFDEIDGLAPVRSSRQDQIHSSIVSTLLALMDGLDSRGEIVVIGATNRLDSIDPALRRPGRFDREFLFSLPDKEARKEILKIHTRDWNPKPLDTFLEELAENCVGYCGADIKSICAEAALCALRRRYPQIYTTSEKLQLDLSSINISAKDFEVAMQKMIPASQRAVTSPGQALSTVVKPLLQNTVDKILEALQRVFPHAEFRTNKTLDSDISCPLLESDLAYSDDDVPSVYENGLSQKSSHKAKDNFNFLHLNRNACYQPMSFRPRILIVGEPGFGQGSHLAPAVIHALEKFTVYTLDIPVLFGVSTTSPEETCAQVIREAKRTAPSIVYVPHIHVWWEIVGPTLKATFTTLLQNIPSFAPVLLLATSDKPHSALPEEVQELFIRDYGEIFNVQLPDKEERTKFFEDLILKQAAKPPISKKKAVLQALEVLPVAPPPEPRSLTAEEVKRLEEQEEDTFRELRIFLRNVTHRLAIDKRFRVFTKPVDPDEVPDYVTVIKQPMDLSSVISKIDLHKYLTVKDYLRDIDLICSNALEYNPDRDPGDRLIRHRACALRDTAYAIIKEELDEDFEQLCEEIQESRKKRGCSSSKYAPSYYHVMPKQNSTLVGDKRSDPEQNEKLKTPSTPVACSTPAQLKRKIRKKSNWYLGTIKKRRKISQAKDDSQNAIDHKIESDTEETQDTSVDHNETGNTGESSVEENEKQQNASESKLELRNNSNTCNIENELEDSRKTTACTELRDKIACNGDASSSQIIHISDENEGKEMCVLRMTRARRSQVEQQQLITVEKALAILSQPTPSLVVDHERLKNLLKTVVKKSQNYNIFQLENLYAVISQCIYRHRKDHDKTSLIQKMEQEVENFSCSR

CREB-binding protein = CREB-binding protein (Homo sapiens, UniProt Q92793); assay: Binding affinity to biotinylated CREBBP (1043 to 1159 amino acid residues) (unknown origin) expressed in Rosetta2 DE3 cells by bio-layer interferometry method
Sequence of CREB-binding protein (Q92793 whole entry, the tested form may be a part): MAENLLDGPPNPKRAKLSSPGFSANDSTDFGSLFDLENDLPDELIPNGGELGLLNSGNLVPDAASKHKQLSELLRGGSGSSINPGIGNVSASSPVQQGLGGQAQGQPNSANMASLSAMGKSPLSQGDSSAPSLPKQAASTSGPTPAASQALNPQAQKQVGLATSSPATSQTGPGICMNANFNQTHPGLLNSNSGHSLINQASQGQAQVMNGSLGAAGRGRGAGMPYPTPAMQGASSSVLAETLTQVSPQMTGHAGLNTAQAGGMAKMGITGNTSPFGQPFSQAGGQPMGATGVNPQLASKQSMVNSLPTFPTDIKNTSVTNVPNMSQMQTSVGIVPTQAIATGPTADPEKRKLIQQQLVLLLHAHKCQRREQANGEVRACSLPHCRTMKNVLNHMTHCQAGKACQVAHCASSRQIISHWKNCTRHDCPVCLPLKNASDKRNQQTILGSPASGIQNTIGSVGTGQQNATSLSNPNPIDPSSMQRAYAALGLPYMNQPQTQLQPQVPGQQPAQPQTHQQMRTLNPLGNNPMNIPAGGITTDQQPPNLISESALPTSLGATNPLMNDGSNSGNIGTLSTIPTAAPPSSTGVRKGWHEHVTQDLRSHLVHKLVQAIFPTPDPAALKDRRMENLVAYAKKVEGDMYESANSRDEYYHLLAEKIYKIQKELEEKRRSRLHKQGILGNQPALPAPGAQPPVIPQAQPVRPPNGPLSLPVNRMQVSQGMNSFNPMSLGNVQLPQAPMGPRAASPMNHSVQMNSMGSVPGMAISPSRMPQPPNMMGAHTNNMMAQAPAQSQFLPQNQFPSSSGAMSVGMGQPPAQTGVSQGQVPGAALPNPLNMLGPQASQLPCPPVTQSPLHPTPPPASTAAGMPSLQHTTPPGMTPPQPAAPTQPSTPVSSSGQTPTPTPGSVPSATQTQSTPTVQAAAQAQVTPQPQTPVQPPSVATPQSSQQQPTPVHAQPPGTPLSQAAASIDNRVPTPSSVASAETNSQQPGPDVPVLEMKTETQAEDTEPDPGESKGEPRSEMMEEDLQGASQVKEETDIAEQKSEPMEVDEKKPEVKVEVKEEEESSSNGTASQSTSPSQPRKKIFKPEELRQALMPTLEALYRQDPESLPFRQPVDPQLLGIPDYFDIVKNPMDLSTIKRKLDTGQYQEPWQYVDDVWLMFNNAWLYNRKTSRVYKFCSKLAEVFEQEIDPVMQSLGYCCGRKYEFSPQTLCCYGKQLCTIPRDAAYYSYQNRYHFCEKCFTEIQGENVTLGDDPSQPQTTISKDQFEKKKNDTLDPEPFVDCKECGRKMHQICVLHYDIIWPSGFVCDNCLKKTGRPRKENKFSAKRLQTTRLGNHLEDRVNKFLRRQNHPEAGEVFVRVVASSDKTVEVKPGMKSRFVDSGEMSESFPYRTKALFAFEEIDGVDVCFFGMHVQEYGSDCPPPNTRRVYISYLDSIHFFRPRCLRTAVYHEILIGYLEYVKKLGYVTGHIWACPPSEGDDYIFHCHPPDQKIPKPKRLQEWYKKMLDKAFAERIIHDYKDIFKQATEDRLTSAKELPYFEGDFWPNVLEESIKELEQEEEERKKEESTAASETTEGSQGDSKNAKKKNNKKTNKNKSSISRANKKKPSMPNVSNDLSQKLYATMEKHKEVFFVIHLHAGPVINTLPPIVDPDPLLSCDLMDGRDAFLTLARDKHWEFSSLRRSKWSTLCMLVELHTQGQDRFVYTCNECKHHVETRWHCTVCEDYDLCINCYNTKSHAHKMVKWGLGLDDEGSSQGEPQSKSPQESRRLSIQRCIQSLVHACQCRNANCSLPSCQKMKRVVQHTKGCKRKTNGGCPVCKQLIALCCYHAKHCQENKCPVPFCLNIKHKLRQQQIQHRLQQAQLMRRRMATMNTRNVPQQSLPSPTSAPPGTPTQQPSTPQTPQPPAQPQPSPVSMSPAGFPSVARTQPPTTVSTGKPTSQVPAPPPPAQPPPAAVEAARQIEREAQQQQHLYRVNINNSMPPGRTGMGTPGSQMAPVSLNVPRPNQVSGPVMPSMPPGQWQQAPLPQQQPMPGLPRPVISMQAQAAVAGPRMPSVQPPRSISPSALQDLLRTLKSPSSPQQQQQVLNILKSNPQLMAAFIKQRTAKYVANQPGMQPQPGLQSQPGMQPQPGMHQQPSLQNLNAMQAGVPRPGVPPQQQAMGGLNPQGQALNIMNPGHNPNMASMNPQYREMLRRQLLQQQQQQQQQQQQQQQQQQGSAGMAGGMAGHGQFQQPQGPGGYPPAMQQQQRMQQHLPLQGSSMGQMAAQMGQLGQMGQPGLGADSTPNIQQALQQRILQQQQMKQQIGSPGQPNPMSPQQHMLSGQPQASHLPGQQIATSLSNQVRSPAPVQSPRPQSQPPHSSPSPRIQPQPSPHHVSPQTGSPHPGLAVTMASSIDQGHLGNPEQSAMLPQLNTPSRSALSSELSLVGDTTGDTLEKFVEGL

[9] = biological target: T3, Bromodomain-containing protein 3; assay: Displacement of FAM-labeled ZBA248 from BRD3 BD1 (24 to 144 amino acid residues) (unknown origin) expressed in Rosetta2 DE3 cells after 30 mins by fluorescence polarization assay

Row | SMILES | IC50 [1] [nM] | Ki [1] [nM] | IC50 [2] [nM] | Ki [2] [nM] | also measured
1 | CCc1noc(CC)c1-c1cc2[nH]c3ccnc(Cl)c3c2cc1OC | > 10000 | > 10000 | 74000 | 8320 | –
2 | Cc1sc2c(c1C)C(c1ccc(Cl)cc1)=N[C@@H](CC(=O)OC(C)(C)C)c1nnc(C)n1-2 | – | – | – | – | IC50 (K562): > 2000 nM
3 | COc1cc2c(cc1-c1c(C)noc1C)[nH]c1ccnc(-c3c(C)nn(-c4ccccc4)c3C)c12 | 301 | 103 | 316 | 98.1 | –
4 | COc1cc2c(cc1-c1c(C)noc1C)[nH]c1ccnc(-c3cn[nH]c3)c12 | 702 | – | 658 | – | –
5 | CCc1onc(C)c1-c1cc2[nH]c3ccnc(Cl)c3c2cc1OC | 9440 | 2810 | 13800 | 2180 | –
6 | CCc1noc(C)c1-c1cc2[nH]c3ccnc(Cl)c3c2cc1OC | 3870 | 1240 | 1820 | 478 | –
7 | CCc1n[nH]c(CC)c1-c1nccc2[nH]c3cc(-c4c(C)noc4C)c(OC)cc3c12 | 131 | 44.1 | 61.9 | 16.1 | Ki [3]: 15.4 nM; Ki [4]: 21 nM; IC50 (K562): > 2000 nM
8 | COc1cc2c(cc1-c1c(C)noc1C)[nH]c1ccnc(-c3c(C)n[nH]c3C)c12 | 276 | – | 324 | – | –
9 | COc1cc2c(cc1-c1c(C)noc1C)[nH]c1ccnc(Cl)c12 | 862 | – | 579 | – | –
10 | COc1cc2c(cc1-c1c(C)noc1C)[nH]c1ccnc(-c3c(C)noc3C)c12 | 134 | 47.8 | 221 | 70.1 | –
11 | COc1cc2c(cc1-c1c(C)noc1C)ncc1[nH]c(=O)n([C@H](C)c3ccccn3)c12 | – | – | – | – | Kd [5]: 40.5 nM; IC50 (MV4-11): 162 nM; Ki [6]: 22.3 nM; Kd [7]: 29.8 nM; Kd [8]: > 10000 nM; Kd (CREB-binding protein): 3080 nM; IC50 (K562): > 2000 nM; Ki [9]: 7.2 nM
12 | COc1cc2c(cc1-c1c(C)noc1C)[nH]c1ccncc12 | 4590 | – | 2690 | – | –
13 | COc1cc2c(cc1-c1c(C)nn(C)c1C)[nH]c1ccnc(Cl)c12 | 14000 | 4840 | 6170 | 1950 | –
14 | CCNC(=O)C[C@@H]1N=C(c2ccc(Cl)cc2)c2cc(OC)ccc2-n2c(C)nnc21 [MOLIBRESIB] | – | – | – | – | Kd [8]: > 10000 nM; Kd (CREB-binding protein): > 10000 nM
15 | COc1cc2c(cc1-c1c(C)n[nH]c1C)[nH]c1ccnc(Cl)c12 | 4870 | 1730 | 2580 | 867 | –
